Measured values taken from the CheMixHub ionic liquid set.

Test: xn = mol fraction of the nth substance listed

CC[n+]1ccn(C)c1.O=S(=O)([O-])C(F)(F)F + CC1COC(=O)O1
101 kPa
Conditions	viscosity [mPa·s]
288.15 K, x1 = 0.3005	10.78
288.15 K, x1 = 0.3998	14.62
288.15 K, x1 = 0.5001	18.7
293.15 K, x1 = 0.0999	5.28
293.15 K, x1 = 0.8004	32.5
298.15 K, x1 = 0.8004	27.2
298.15 K, x1 = 0.8998	32.5
298.15 K, x1 = 1	40.4
303.15 K, x1 = 0.0999	3.91
303.15 K, x1 = 0.3998	8.9
303.15 K, x1 = 0.6987	18.4
303.15 K, x1 = 1	34
308.15 K, x1 = 0.5001	9.9
313.15 K, x1 = 0.8998	20.4
313.15 K, x1 = 1	24.9
318.15 K, x1 = 0.1999	3.52
318.15 K, x1 = 0.3005	4.44
318.15 K, x1 = 0.3998	5.86
318.15 K, x1 = 0.5001	7.69
318.15 K, x1 = 0.8998	17.7
323.15 K, x1 = 0.6987	10.72
323.15 K, x1 = 0.8998	15.47
328.15 K, x1 = 0.1999	2.81
328.15 K, x1 = 0.3005	3.48
328.15 K, x1 = 0.3998	4.58
328.15 K, x1 = 0.5001	6.16
328.15 K, x1 = 0.601	7.77
333.15 K, x1 = 0.3005	3.14
333.15 K, x1 = 0.6987	8.51
333.15 K, x1 = 0.8004	10.43
338.15 K, x1 = 0.601	6.33
338.15 K, x1 = 0.8004	9.21
343.15 K, x1 = 0.0999	1.74
343.15 K, x1 = 0.3998	3.35
353.15 K, x1 = 0.3005	2.29
353.15 K, x1 = 0.8998	8.38
353.15 K, x1 = 1	9.49

CC[N+](CC)(CC)CC.O=S(=O)([O-])C(F)(F)F + CC#N
100 kPa
Conditions	electrical conductivity [S/m]
293.15 K, x1 = 0.02	2.56
293.15 K, x1 = 0.05	4.03
298.15 K, x1 = 0.0997	4.87
308.15 K, x1 = 0.1498	4.75
318.15 K, x1 = 0.05	4.94
318.15 K, x1 = 0.2995	3.89
323.15 K, x1 = 0.2995	4.16
333.15 K, x1 = 0.2	5.43
333.15 K, x1 = 0.25	4.96
333.15 K, x1 = 0.2995	4.73
348.15 K, x1 = 0.02	3.67
348.15 K, x1 = 0.08	6.89
348.15 K, x1 = 0.1498	6.97

CC[n+]1ccn(C)c1.O=S(=O)([O-])C(F)(F)F + CC#N
viscosity [mPa·s], 100 kPa
Conditions	298.15 K	303.15 K	308.15 K	313.15 K	318.15 K	323.15 K
x1 = 0.3948	4.5	4.1	3.8	3.5	–	–
x1 = 0.498	7.4	6.6	6	5.4	4.9	4.4
x1 = 0.595	–	9.5	8.4	7.5	6.7	6
x1 = 0.6936	–	–	–	–	9.5	8.3
x1 = 0.9005	34	–	–	–	–	–
x1 = 1	46	38	–	–	–	–

CCc1n(S(=O)(=O)O)cc[n+]1S(=O)(=O)O.O=C([O-])C(F)(F)F + CC#N
101 kPa
Conditions	electrical conductivity [S/m]
278.15 K, x1 = 0.02551	1.22
283.15 K, x1 = 0.02551	1.21
288.15 K, x1 = 0.02551	1.2
293.15 K, x1 = 0.02551	1.11
298.15 K, x1 = 0.0052	0.323
298.15 K, x1 = 0.0104	0.517
298.15 K, x1 = 0.0155	0.736
298.15 K, x1 = 0.0205	0.989
298.15 K, x1 = 0.0255	1.11
298.15 K, x1 = 0.02551	1.11
303.15 K, x1 = 0.02551	0.823
308.15 K, x1 = 0.02551	0.824
313.15 K, x1 = 0.02551	0.816
318.15 K, x1 = 0.02551	0.767
323.15 K, x1 = 0.02551	0.755
328.15 K, x1 = 0.02551	0.689
333.15 K, x1 = 0.02551	0.652

C[n+]1ccn(CCCC#N)c1.F[B-](F)(F)F + CC#N
100 kPa
Conditions	electrical conductivity [S/m]
288.15 K, x1 = 0.5996	0.36
293.15 K, x1 = 0.4999	0.69
293.15 K, x1 = 0.5996	0.47
303.15 K, x1 = 0.4999	1
303.15 K, x1 = 0.8885	0.31
308.15 K, x1 = 0.7001	0.72
323.15 K, x1 = 0.8024	0.87

Cc1n(S(=O)(=O)O)cc[n+]1S(=O)(=O)O.O=C([O-])C(F)(F)F + CC#N
101 kPa
Conditions	electrical conductivity [S/m]
278.15 K, x1 = 0.02551	1.39
283.15 K, x1 = 0.02551	1.36
288.15 K, x1 = 0.02551	1.3
293.15 K, x1 = 0.02551	1.29
298.15 K, x1 = 0.0052	0.351
298.15 K, x1 = 0.0104	0.528
298.15 K, x1 = 0.0155	0.698
298.15 K, x1 = 0.0205	1.04
298.15 K, x1 = 0.0255	1.26
298.15 K, x1 = 0.02551	1.26
303.15 K, x1 = 0.02551	1.2
308.15 K, x1 = 0.02551	1.15
313.15 K, x1 = 0.02551	1.1
318.15 K, x1 = 0.02551	1.09
323.15 K, x1 = 0.02551	1.08
328.15 K, x1 = 0.02551	0.706
333.15 K, x1 = 0.02551	0.616

O=C([O-])C(F)(F)F.O=S(=O)(O)n1cc[n+](S(=O)(=O)O)c1 + CC#N
101 kPa
Conditions	electrical conductivity [S/m]
278.15 K, x1 = 0.02551	1.83
283.15 K, x1 = 0.02551	1.78
288.15 K, x1 = 0.02551	1.62
293.15 K, x1 = 0.02551	1.59
298.15 K, x1 = 0.0052	0.305
298.15 K, x1 = 0.0104	0.52
298.15 K, x1 = 0.0155	0.949
298.15 K, x1 = 0.0205	1.15
298.15 K, x1 = 0.0255	1.54
298.15 K, x1 = 0.02551	1.54
298.15 K, x1 = 0.05	2.02
303.15 K, x1 = 0.02551	1.27
308.15 K, x1 = 0.02551	1.25
313.15 K, x1 = 0.02551	1.25
318.15 K, x1 = 0.02551	1.25
323.15 K, x1 = 0.02551	0.803
328.15 K, x1 = 0.02551	0.486
333.15 K, x1 = 0.02551	0.401

O=c1cc[nH]c(=O)[nH]1 + CC(=O)[O-].CC[n+]1ccn(C)c1
Conditions	viscosity [mPa·s]
298.15 K, 100 kPa, x1 = 0.233	773
